Target: T1, human HSL (Homo sapiens, UniProt Q05469)
T1 construct: overlapping PCR to generate a full length human HSL ORF with a 3′-His6 tag; made in house; host or cells: High 5 insect cells (baculovirus, pFast-BAC)
T1 sequence (Q05469 1-1076): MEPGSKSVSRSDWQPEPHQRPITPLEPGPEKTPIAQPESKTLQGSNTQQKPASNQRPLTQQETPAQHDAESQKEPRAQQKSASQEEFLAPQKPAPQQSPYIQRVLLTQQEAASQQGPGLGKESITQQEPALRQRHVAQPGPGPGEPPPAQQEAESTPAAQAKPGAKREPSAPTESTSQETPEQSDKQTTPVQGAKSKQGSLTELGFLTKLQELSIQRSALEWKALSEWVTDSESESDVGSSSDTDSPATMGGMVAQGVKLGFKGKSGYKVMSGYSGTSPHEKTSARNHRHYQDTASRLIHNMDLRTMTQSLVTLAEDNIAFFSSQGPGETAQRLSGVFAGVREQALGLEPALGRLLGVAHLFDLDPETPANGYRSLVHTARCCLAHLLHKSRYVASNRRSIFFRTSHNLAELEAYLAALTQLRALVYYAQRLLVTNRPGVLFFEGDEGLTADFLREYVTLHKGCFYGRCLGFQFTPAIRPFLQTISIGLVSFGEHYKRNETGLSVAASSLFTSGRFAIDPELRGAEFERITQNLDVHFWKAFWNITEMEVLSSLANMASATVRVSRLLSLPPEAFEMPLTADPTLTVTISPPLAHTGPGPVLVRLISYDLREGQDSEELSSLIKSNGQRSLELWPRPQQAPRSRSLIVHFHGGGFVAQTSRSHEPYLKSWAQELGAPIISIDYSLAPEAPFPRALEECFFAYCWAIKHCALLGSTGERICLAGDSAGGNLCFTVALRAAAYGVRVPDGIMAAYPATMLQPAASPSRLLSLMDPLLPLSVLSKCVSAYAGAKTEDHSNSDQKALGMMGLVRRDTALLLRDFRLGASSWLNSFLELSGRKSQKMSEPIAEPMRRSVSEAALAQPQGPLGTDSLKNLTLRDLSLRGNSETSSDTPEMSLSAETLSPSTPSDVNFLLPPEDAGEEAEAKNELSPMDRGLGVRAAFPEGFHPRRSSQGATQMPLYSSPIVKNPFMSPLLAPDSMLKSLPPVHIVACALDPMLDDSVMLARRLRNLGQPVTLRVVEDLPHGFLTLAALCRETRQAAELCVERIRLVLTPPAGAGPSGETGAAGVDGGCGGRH
Experiment: Human Hormone-Sensitive Lipase (HSL) enzyme inhibition assay (colorimetric, DMPT substrate)
Type: biochemical
Settings: human full length HSL-His6; substrate 2,3-dimercapto-1-propanol tributyrate; 37° C., 20 minutes; absorbance at 405 nm; read-out: HSL hum IC50
Procedure: Production of Human full length Hormone Sensitive Lipase-His^6:
1) Cloning: cDNA was prepared from commercial human brain polyA+ RNA and used as a template in overlapping PCR to generate a full length human HSL ORF with a 3′-His6 tag. This full length insert was cloned into the pFast-BAC vector and the DNA-sequence of several single clones was verified. DNA from a correct full length clone with the 3′His6 tag was used to transform the E. coli strain DH10BAC. Resulting bacmid DNA was used to generate a titered baculovirus stock for protein generation. The sequence of the encoded HSL conforms to Swissprot entry Q05469, with the additional C-terminal His6-tag. 2) Protein purification: Culture: 5.5 L, High 5 cells expressing human full length HSL-His^6, 48 hr., containing 25 μM E-64. Cell count: 1.78×10^10 cells/ml, 90% viable. Cells were thawed. On ice, cells were suspended in Base Buffer containing 10% glycerol, 25 mM Tris-Cl, 300 mM NaCl, 10 mM imidazole, 10 mM 2-mercaptoethanol, 2 μg pepstatin/ml, 2 μg leupeptin/ml, 2 μg antipain/ml, pH 8.0 at 4° C. in a final volume of 475 ml with 3.75×10^7 cells/ml. […] was done at 3×30 sec., Lubrol PX was added to 0.2% final concentration followed by stirring for 15 min. at 4° C. and centrifugation at 25 k×g, 60 min., 4° C. Soluble proteins were mixed with 60 ml of pre-washed and equilibrated Ni-NTA Agarose (Qiagen 30210) followed by tumbling end-over-end, 45 min., 4° C., centrifugation 1000 rpm 5 min and letting resin settle 5 min. Supernatant was removed, the resin washed in the centrifuge vessel using 5 volumes of Base Buffer containing 0.2% Lubrol PX. Centrifugation was done again, then the supernatant discarded. The resin was poured onto a 0.8 μm membrane in a disposable filter unit (Nalge 450-0080), and washed with 5 volumes of Base Buffer containing 0.2% Lubrol PX. It was then washed with 30 volumes of Base Buffer containing 60 mM imidazole pH 7.5 at 4° C. The protein was eluated with 5 volumes of 25 mM Tris-Cl, 300 mM NaCl, 200 mM imidazole, 10 mM 2-mercaptoethanol, pH 7.5 at 4° C. by tumbling resin with buffer end-over-end, 30 min., 4° C. The resin was captured on a 0.2 μm membrane disposable filter unit (Millipore SCGP U02 RE) and the eluate collected in the reservoir. The eluate was concentrated using a 30 k MWCO centrifugal filter device (Sartorius Vivascience Vivacell 100, VC1022), to 20 ml. It was then dialyzed overnight at 4° C., two times against 2 L of 10% glycerol, 25 mM Tris-Cl, 300 mM NaCl, 0.2 mM EDTA, 0.2 mM DTT, pH 7.5 at 4° C. The protein was filtered using a 0.22 μm disposable filter unit (Millipore SCGP00525). The protein concentration was calculated from absorbance at 280 nm, using 280=0.67 cm-1 mg-1. Yield was 235 mg, total. The protein was stored at −80° C.
Human Hormone-Sensitive Lipase (HSL) Enzyme Inhibition Assay:
HSL enzyme activity was measured by a colorimetric assay using 2,3-dimercapto-1-propanol tributyrate (Aldrich, St. Louis, Mo.) as a substrate. Typically, 1.5 mM 2,3-dimercapto-1-propanol tributyrate (DMPT) in 100 mM MOPS, pH 7.2, 0.2 mg/ml fatty acid-free BSA was prepared by sonication at 4° C. to homogenous suspension. Test compounds (2 mM stock in DMSO) were diluted 3 fold in series in DMSO. Compound solutions were diluted 24 fold in 1.5 mM DMPT containing solution and 18 ul per well was added to 384-well microplates (Corning Costar). Twelve microliters per well of human HSL (15 ug/ml) was added and the reaction mixture was incubated at 37° C. for 20 minutes. Six microliters of 12 mM dithio-bis-(2-nitrobenzoic acid) (DTNB) in DMSO plus 1.2% SDS and 0.6% Triton X-100 were added and the mixture was incubated at room temperature for 15 minutes. Product production was monitored by reading absorbance at 405 nm on an Envision Reader (PerkinElmer Life and Analytical Sciences, Shelton, Conn.).

| SMILES | IC50 [nM] |
| --- | --- |
| O=C1N(c2ccc(OC(F)(F)F)cc2)CCC12CCN(c1ccc(C(F)(F)F)cc1F)CC2 [Example 1, 8-(2-Fluoro-4-trifluoromethyl-phenyl)-2-(4-trifluoromethoxy-phenyl)-2,8-diaza-spiro[4.5]decan-1-one] | 920 |
| O=C1N(c2ccc(OC(F)(F)F)cc2)CCC12CCN(c1cc(C(F)(F)F)ccc1F)CC2 [Example 2, 8-(2-Fluoro-5-trifluoromethyl-phenyl)-2-(4-trifluoromethoxy-phenyl)-2,8-diaza-spiro[4.5]decan-1-one] | 550 |
| O=C1N(c2ccc(OC(F)(F)F)cc2)CCC12CCN(c1ccccc1F)CC2 [Example 3, 8-(2-Fluoro-phenyl)-2-(4-trifluoromethoxy-phenyl)-2,8-diaza-spiro[4.5]decan-1-one] | 310 |
| O=C1N(c2ccc(OC(F)(F)F)cc2)CCC12CCN(c1cccc(OC(F)(F)F)c1)CC2 [Example 4, 8-(3-Trifluoromethoxy-phenyl)-2-(4-trifluoromethoxy-phenyl)-2,8-diaza-spiro[4.5]decan-1-one] | 630 |
| O=C1N(c2ccc(OC(F)(F)F)cc2)CCC12CCN(c1ccccc1Cl)CC2 [Example 5, 8-(2-Chloro-phenyl)-2-(4-trifluoromethoxy-phenyl)-2,8-diaza-spiro[4.5]decan-1-one] | 710 |
| O=C1N(c2ccc(OC(F)(F)F)cc2)CCC12CCN(c1c(F)cccc1F)CC2 [Example 6, 8-(2,6-Difluoro-phenyl)-2-(4-trifluoromethoxy-phenyl)-2,8-diaza-spiro[4.5]decan-1-one] | 960 |
| COc1ccccc1N1CCC2(CC1)CCN(c1ccc(OC(F)(F)F)cc1)C2=O [Example 7, 8-(2-Methoxy-phenyl)-2-(4-trifluoromethoxy-phenyl)-2,8-diaza-spiro[4.5]decan-1-one] | 110 |
| COc1ccc(C)cc1N1CCC2(CC1)CCN(c1ccc(OC(F)(F)F)cc1)C2=O [Example 8, 8-(2-Methoxy-5-methyl-phenyl)-2-(4-trifluoromethoxy-phenyl)-2,8-diaza-spiro[4.5]decan-1-one] | 100 |
| COc1ncccc1N1CCC2(CC1)CCN(c1ccc(OC(F)(F)F)cc1)C2=O [Example 9, 8-(2-Methoxy-pyridin-3-yl)-2-(4-trifluoromethoxy-phenyl)-2,8-diaza-spiro[4.5]decan-1-one] | 110 |
| Cc1cnc(F)c(N2CCC3(CC2)CCN(c2ccc(OC(F)(F)F)cc2)C3=O)c1 [Example 10, 8-(2-fluoro-5-methylpyridin-3-yl)-2-(4-(trifluoromethoxy)phenyl)-2,8-diazaspiro[4.5]decan-1-one] | 240 |
| Cn1cccc(N2CCC3(CC2)CCN(c2ccc(OC(F)(F)F)cc2)C3=O)c1=O [Example 11, 8-(1-methyl-2-oxo-1,2-dihydropyridin-3-yl)-2-(4-(trifluoromethoxy)phenyl)-2,8-diazaspiro[4.5]decan-1-one] | 20 |
| CCCn1cccc(N2CCC3(CC2)CCN(c2ccc(OC(F)(F)F)cc2)C3=O)c1=O [Example 12, 8-(2-Oxo-1-propyl-1,2-dihydro-pyridin-3-yl)-2-(4-trifluoromethoxy-phenyl)-2,8-diaza-spiro[4.5]decan-1-one] | 30 |
| O=C1N(c2ccc(OC(F)(F)F)cc2)CCC12CCN(c1ccccc1O)CC2 [Example 13, 8-(2-Hydroxy-phenyl)-2-(4-trifluoromethoxy-phenyl)-2,8-diaza-spiro[4.5]decan-1-one] | 50 |
| Cc1ccc(O)c(N2CCC3(CC2)CCN(c2ccc(OC(F)(F)F)cc2)C3=O)c1 [Example 14, 8-(2-Hydroxy-5-methyl-phenyl)-2-(4-trifluoromethoxy-phenyl)-2,8-diaza-spiro[4.5]decan-1-one] | 60 |
| O=C1N(c2ccc(OC(F)(F)F)cc2)CCC12CCN(c1cccnc1O)CC2 [Example 15, 8-(2-Hydroxy-pyridin-3-yl)-2-(4-trifluoromethoxy-phenyl)-2,8-diaza-spiro[4.5]decan-1-one] | 40 |
| O=C1N(c2ccc(OC(F)(F)F)cc2)CCC12CCN(c1cccc(OCc3ccccc3)n1)CC2 [Example 16, 8-(6-Benzyloxy-pyridin-2-yl)-2-(4-trifluoromethoxy-phenyl)-2,8-diaza-spiro[4.5]decan-1-one] | 900 |
| O=C1N(c2ccc(OC(F)(F)F)cc2)CCC12CCN(c1cccc(O)n1)CC2 [Example 17, 8-(6-Hydroxy-pyridin-2-yl)-2-(4-trifluoromethoxy-phenyl)-2,8-diaza-spiro[4.5]decan-1-one] | 250 |
| C[C@H](Oc1ccc(N2CCC3(CCN(c4cccn(C)c4=O)CC3)C2=O)cc1)C(F)(F)F [Example 18, 8-(1-Methyl-2-oxo-1,2-dihydro-pyridin-3-yl)-2-[4-((S)-2,2,2-trifluoro-1-methyl-ethoxy)-phenyl]-2,8-diaza-spiro[4.5]decan-1-one] | 20 |

From patent US8552024B2, “Azacyclic compounds” (Hoffman-La Roche Inc., priority 2011, dated 2013)
